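Assay format: 96-well plates, 48-hour exposure. The concentration for 50% growth inhibition is given as GI50.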 Activity calls are given as the source filed them. Cut-off read from the data, not from the text of the source: active = GI50 up to about 1.1 µM and inactive = higher.
How the values were obtained:
Assay in all cases: growth of human tumour cells (NCI), 48 h
786-0 = test system: 786-0
A549 = test system: A549
ACHN = test system: ACHN
CCRF-CEM = test system: CCRF-CEM
COLO 205 = test system: COLO 205
DLD-1 = test system: DLD-1
DMS-114 = test system: DMS-114
EKVX = test system: EKVX
HCC 2998 = test system: HCC 2998
HCT-116 = test system: HCT-116
HL-60 = test system: HL-60
HOP-18 = test system: HOP-18
HOP-62 = test system: HOP-62
HOP-92 = test system: HOP-92
HT-29 = test system: HT-29
IGROV-1 = test system: IGROV-1
K562 = test system: K562
KM-20L2 = test system: KM-20L2
KM12 = test system: KM12
LOX IMVI = test system: LOX IMVI
LXFL 529 = test system: LXFL 529
M14 = test system: M14
MOLT-4 = test system: MOLT-4
Malme-3M = test system: Malme-3M
NCI-H226 = test system: NCI-H226
NCI-H23 = test system: NCI-H23
NCI-H460 = test system: NCI-H460
NCI-H522 = test system: NCI-H522
OVCAR-3 = test system: OVCAR-3
OVCAR-4 = test system: OVCAR-4
OVCAR-5 = test system: OVCAR-5
OVCAR-8 = test system: OVCAR-8
RPMI-8226 = test system: RPMI-8226
RXF 393 = test system: RXF 393
SF-268 = test system: SF-268
SF-295 = test system: SF-295
SF-539 = test system: SF-539
SK-MEL-28 = test system: SK-MEL-28
SK-MEL-5 = test system: SK-MEL-5
SK-OV-3 = test system: SK-OV-3
SN12C = test system: SN12C
SNB-19 = test system: SNB-19
SNB-75 = test system: SNB-75
SW-620 = test system: SW-620
TK-10 = test system: TK-10
UACC-257 = test system: UACC-257
UACC-62 = test system: UACC-62
UO-31 = test system: UO-31
XF498 = test system: XF498
DMS-273 = test system: DMS-273
HCT-15 = test system: HCT-15
M19-MEL = test system: M19-MEL
SK-MEL-2 = test system: SK-MEL-2
SR = test system: SR
U-251 = test system: U-251
CAKI-1 = test system: CAKI-1

In the case of `CCOc1cccc2cccnc12`, the GI50 (786-0) is reported as > 100 µM (inactive), the GI50 (A549) is reported as > 100 µM (inactive) and the GI50 (ACHN) is reported as > 100 µM (inactive). For the same compound, the GI50 (CCRF-CEM) was > 100 µM (inactive), the GI50 (COLO 205) was > 100 µM (inactive) and the GI50 (DLD-1) was > 100 µM (inactive). The GI50 (DMS-114) was > 100 µM (inactive), the GI50 (EKVX) was > 100 µM (inactive) and the GI50 (HCC 2998) was > 100 µM (inactive). The GI50 (HCT-116) was > 100 µM (inactive), the GI50 (HL-60) was > 100 µM (inactive) and the GI50 (HOP-18) was 57.5 µM (inactive). For the same compound, the GI50 (HOP-62) was > 100 µM (inactive), the GI50 (HOP-92) was > 100 µM (inactive) and the GI50 (HT-29) was > 100 µM (inactive). The GI50 (IGROV-1) was > 100 µM (inactive), the GI50 (K562) was > 100 µM (inactive) and the GI50 (KM-20L2) was > 100 µM (inactive). For the same compound, the GI50 (KM12) was > 100 µM (inactive), the GI50 (LOX IMVI) was > 100 µM (inactive) and the GI50 (LXFL 529) was > 100 µM (inactive). The GI50 (M14) was > 100 µM (inactive), the GI50 (MOLT-4) was > 100 µM (inactive) and the GI50 (Malme-3M) was > 100 µM (inactive). The GI50 (NCI-H226) was > 100 µM (inactive), the GI50 (NCI-H23) was > 100 µM (inactive) and the GI50 (NCI-H460) was > 100 µM (inactive). The GI50 (NCI-H522) was > 100 µM (inactive), the GI50 (OVCAR-3) was > 100 µM (inactive) and the GI50 (OVCAR-4) was > 100 µM (inactive). For the same compound, the GI50 (OVCAR-5) was > 100 µM (inactive), the GI50 (OVCAR-8) was > 100 µM (inactive) and the GI50 (RPMI-8226) was > 100 µM (inactive). For the same compound, the GI50 (RXF 393) was > 100 µM (inactive), the GI50 (SF-268) was > 100 µM (inactive) and the GI50 (SF-295) was > 100 µM (inactive). The GI50 (SF-539) was > 100 µM (inactive), the GI50 (SK-MEL-28) was > 100 µM (inactive) and the GI50 (SK-MEL-5) was > 100 µM (inactive). For the same compound, the GI50 (SK-OV-3) was > 100 µM (inactive), the GI50 (SN12C) was > 100 µM (inactive) and the GI50 (SNB-19) was > 100 µM (inactive). The GI50 (SNB-75) was > 100 µM (inactive), the GI50 (SW-620) was > 100 µM (inactive) and the GI50 (TK-10) was > 100 µM (inactive). For the same compound, the GI50 (UACC-257) was > 100 µM (inactive), the GI50 (UACC-62) was > 100 µM (inactive) and the GI50 (UO-31) was > 100 µM (inactive). The GI50 (XF498) was > 100 µM (inactive).

For `Cc1ccc(S(=O)(=O)n2c(-c3ccccc3)c(-c3ccccc3)c3ccccc32)cc1`, the GI50 (786-0) was > 100 µM (inactive), the GI50 (A549) was > 100 µM (inactive) and the GI50 (ACHN) was > 100 µM (inactive). For the same compound, the GI50 (CCRF-CEM) was > 100 µM (inactive), the GI50 (COLO 205) was > 100 µM (inactive) and the GI50 (DLD-1) was > 100 µM (inactive). The GI50 (DMS-114) was 20.5 µM (inactive), the GI50 (DMS-273) was > 100 µM (inactive) and the GI50 (EKVX) was > 100 µM (inactive). For the same compound, the GI50 (HCC 2998) was > 100 µM (inactive), the GI50 (HCT-116) was > 100 µM (inactive) and the GI50 (HCT-15) was > 100 µM. The GI50 (HL-60) was > 100 µM (inactive), the GI50 (HOP-18) was > 100 µM (inactive) and the GI50 (HOP-62) was > 100 µM (inactive). The GI50 (HOP-92) was 3.08 µM (inactive), the GI50 (HT-29) was > 100 µM (inactive) and the GI50 (IGROV-1) was > 100 µM (inactive). The GI50 (K562) was 64.9 µM (inactive), the GI50 (KM-20L2) was > 100 µM (inactive) and the GI50 (KM12) was > 100 µM (inactive). For the same compound, the GI50 (LOX IMVI) was > 100 µM (inactive), the GI50 (LXFL 529) was > 100 µM (inactive) and the GI50 (M14) was > 100 µM (inactive). The GI50 (M19-MEL) was > 100 µM (inactive), the GI50 (MOLT-4) was > 100 µM (inactive) and the GI50 (Malme-3M) was > 100 µM (inactive). For the same compound, the GI50 (NCI-H226) was > 100 µM (inactive), the GI50 (NCI-H23) was 17.7 µM (inactive) and the GI50 (NCI-H460) was > 100 µM (inactive). For the same compound, the GI50 (NCI-H522) was > 100 µM (inactive), the GI50 (OVCAR-3) was > 100 µM (inactive) and the GI50 (OVCAR-4) was > 100 µM (inactive). For the same compound, the GI50 (OVCAR-5) was > 100 µM (inactive), the GI50 (OVCAR-8) was > 100 µM (inactive) and the GI50 (RPMI-8226) was 23.1 µM (inactive). The GI50 (RXF 393) was > 100 µM (inactive), the GI50 (SF-268) was > 100 µM (inactive) and the GI50 (SF-295) was 97.5 µM (inactive). The GI50 (SF-539) was > 100 µM (inactive), the GI50 (SK-MEL-28) was > 100 µM (inactive) and the GI50 (SK-MEL-2) was > 100 µM (inactive). The GI50 (SK-MEL-5) was 20.3 µM (inactive), the GI50 (SK-OV-3) was 5.32 µM (inactive) and the GI50 (SN12C) was > 100 µM (inactive). The GI50 (SNB-19) was > 100 µM (inactive), the GI50 (SNB-75) was > 100 µM (inactive) and the GI50 (SR) was 7.31 µM (inactive). For the same compound, the GI50 (SW-620) was > 100 µM (inactive), the GI50 (TK-10) was > 100 µM (inactive) and the GI50 (U-251) was > 100 µM (inactive). The GI50 (UACC-257) was > 100 µM (inactive), the GI50 (UACC-62) was > 100 µM (inactive) and the GI50 (UO-31) was > 100 µM (inactive). The GI50 (XF498) was > 100 µM (inactive).

In the case of `[O-][S+]1c2ccccc2NC(c2ccc3ccccc3c2)CC1c1ccccc1` (stereo not given), the GI50 (786-0) is reported as 17.3 µM (inactive), the GI50 (A549) is reported as 30.1 µM (inactive) and the GI50 (ACHN) is reported as 20.8 µM (inactive). For the same compound, the GI50 (CAKI-1) was 26.8 µM (inactive), the GI50 (CCRF-CEM) was 17 µM (inactive) and the GI50 (COLO 205) was 29.9 µM (inactive). For the same compound, the GI50 (DLD-1) was 23.3 µM (inactive), the GI50 (DMS-273) was 29.5 µM (inactive) and the GI50 (EKVX) was 26.6 µM (inactive). For the same compound, the GI50 (HCC 2998) was 17.8 µM (inactive), the GI50 (HCT-15) was 22.3 µM and the GI50 (HL-60) was 24.3 µM (inactive). The GI50 (HOP-18) was > 100 µM (inactive), the GI50 (HOP-62) was 40.6 µM (inactive) and the GI50 (HT-29) was 22.3 µM (inactive). The GI50 (IGROV-1) was 19.3 µM (inactive), the GI50 (K562) was 16 µM (inactive) and the GI50 (KM-20L2) was 22.9 µM (inactive). For the same compound, the GI50 (KM12) was 16.7 µM (inactive), the GI50 (LOX IMVI) was 17.9 µM (inactive) and the GI50 (LXFL 529) was 15.7 µM (inactive). For the same compound, the GI50 (M14) was 40.5 µM (inactive), the GI50 (M19-MEL) was 20.9 µM (inactive) and the GI50 (MOLT-4) was 24 µM (inactive). The GI50 (Malme-3M) was 61.5 µM (inactive), the GI50 (NCI-H226) was 20.6 µM (inactive) and the GI50 (NCI-H23) was 16.7 µM (inactive). For the same compound, the GI50 (NCI-H460) was 19.5 µM (inactive), the GI50 (NCI-H522) was 17.8 µM (inactive) and the GI50 (OVCAR-3) was 15.6 µM (inactive). The GI50 (OVCAR-4) was 23.9 µM (inactive), the GI50 (OVCAR-5) was 42 µM (inactive) and the GI50 (OVCAR-8) was 21.2 µM (inactive). For the same compound, the GI50 (RPMI-8226) was 21.6 µM (inactive), the GI50 (RXF 393) was 14.8 µM (inactive) and the GI50 (SF-268) was 36.4 µM (inactive). The GI50 (SF-295) was 19.1 µM (inactive), the GI50 (SF-539) was 20 µM (inactive) and the GI50 (SK-MEL-28) was 35.2 µM (inactive). The GI50 (SK-MEL-2) was 92.7 µM (inactive), the GI50 (SK-MEL-5) was 17.5 µM (inactive) and the GI50 (SK-OV-3) was 99.1 µM (inactive). For the same compound, the GI50 (SN12C) was 32.6 µM (inactive), the GI50 (SNB-19) was 30.6 µM (inactive) and the GI50 (SNB-75) was 24.8 µM (inactive). The GI50 (SW-620) was 20 µM (inactive), the GI50 (TK-10) was 35.4 µM (inactive) and the GI50 (UACC-257) was 32.4 µM (inactive). For the same compound, the GI50 (UACC-62) was 37.1 µM (inactive), the GI50 (UO-31) was 18 µM (inactive) and the GI50 (XF498) was 19.1 µM (inactive).

Reference: ChEMBL document CHEMBL1201862, “PubChem BioAssay data set” (2004)
